Reference: ChEMBL document CHEMBL1201862, “PubChem BioAssay data set” (2004)
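Method: 48-hour compound exposure of cells in 96-well plates, five concentrations, linear interpolation of endpoints. At the GI50, growth is halved.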 The source made the active and inactive calls. No stated cut-off is given here; in the data, active = GI50 up to about 1.1 µM and inactive = higher.

Experiments:
Test in all cases: NCI-60 cell line screen, 48 h
786-0 = system: 786-0
A498 = system: A498
A549 = system: A549
HL-60 = system: HL-60
HOP-62 = system: HOP-62
HOP-92 = system: HOP-92
Hs-578T = system: Hs-578T
LOX IMVI = system: LOX IMVI
MDA-MB-231 = system: MDA-MB-231
MDA-MB-435 = system: MDA-MB-435
Malme-3M = system: Malme-3M
OVCAR-3 = system: OVCAR-3
RXF 393 = system: RXF 393
SF-268 = system: SF-268
SK-MEL-28 = system: SK-MEL-28
SN12C = system: SN12C
SNB-75 = system: SNB-75
T47D = system: T47D
UACC-257 = system: UACC-257
RPMI-8226 = system: RPMI-8226

Row | Structure (SMILES) | GI50 (786-0) | GI50 (A498) | GI50 (A549) | GI50 (HL-60) | GI50 (HOP-62) | GI50 (HOP-92) | GI50 (Hs-578T) | GI50 (LOX IMVI) | GI50 (MDA-MB-231) | GI50 (MDA-MB-435) | GI50 (Malme-3M) | GI50 (OVCAR-3) | GI50 (RXF 393) | GI50 (SF-268) | GI50 (SK-MEL-28) | GI50 (SN12C) | GI50 (SNB-75) | GI50 (T47D) | GI50 (UACC-257) | GI50 (RPMI-8226)
1 | O=C(O)COc1cccc2ccccc(=O)c12 | > 100 µM (inactive) | > 100 µM (inactive) | > 100 µM (inactive) | > 100 µM (inactive) | > 100 µM (inactive) | > 100 µM (inactive) | > 100 µM (inactive) | > 100 µM (inactive) | > 100 µM (inactive) | > 100 µM (inactive) | > 100 µM (inactive) | > 100 µM (inactive) | > 100 µM (inactive) | > 100 µM (inactive) | > 100 µM (inactive) | > 100 µM (inactive) | 0.0126 µM (active) | > 100 µM (inactive) | > 100 µM (inactive) | 
2 | Clc1ccc(CSc2ncnc3c2ncn3C2CCCCO2)cc1 (stereo unspecified) | 22.5 µM (inactive) | 16.4 µM (inactive) | 25.2 µM (inactive) |  | 18.7 µM (inactive) | 24.7 µM (inactive) | 26.5 µM (inactive) | 18.5 µM (inactive) | 24.5 µM (inactive) | 18.2 µM (inactive) | 17.9 µM (inactive) | 15.7 µM (inactive) | 25.1 µM (inactive) | 23.3 µM (inactive) | 22.8 µM (inactive) | 18.3 µM (inactive) | 20.2 µM (inactive) | 17.4 µM (inactive) | 11.2 µM (inactive) | 14.3 µM (inactive)
3 | CCC/N=C/c1cc(Cc2ccc(O)c(/C=N/CCC)c2)ccc1O | 12.8 µM (inactive) | 2.37 µM (inactive) | 17 µM (inactive) | 2.21 µM (inactive) | 14.1 µM (inactive) | 1.85 µM (inactive) | 16 µM (inactive) | 3.17 µM (inactive) | 9.89 µM (inactive) | 3.47 µM (inactive) | 19.5 µM (inactive) | 2.91 µM (inactive) | 16.3 µM (inactive) | 3.8 µM (inactive) |  | 3.82 µM (inactive) | 2.86 µM (inactive) | 1.45 µM (inactive) | 19.1 µM (inactive) | 
4 | COC(=O)C(CCC1C=CN(S(=O)(=O)c2ccc(C)cc2)C1)/N=C/c1ccccc1 (stereo unspecified) | 43.8 µM (inactive) | 99.3 µM (inactive) | 42.4 µM (inactive) | 1.29 µM (inactive) | 59.2 µM (inactive) | 29.7 µM (inactive) | > 100 µM (inactive) | 47.4 µM (inactive) | 39.6 µM (inactive) | 33.2 µM (inactive) |  | 35.9 µM (inactive) | 75.5 µM (inactive) | 69.8 µM (inactive) | 69.5 µM (inactive) | 35.5 µM (inactive) | 52.5 µM (inactive) | 47.6 µM (inactive) | 50 µM (inactive) | 28.1 µM (inactive)
5 | C[n+]1c(-c2ccc(/C=N\N3CCN(/N=C/c4ccc(-c5cn6ccsc6[n+]5C)cc4)CC3)cc2)cn2ccsc21 | 26.1 µM (inactive) | 23.1 µM (inactive) | 44.1 µM (inactive) | 21.2 µM (inactive) |  | 42.3 µM (inactive) | 19.2 µM (inactive) | 60.8 µM (inactive) | 20.7 µM (inactive) | 26.7 µM (inactive) |  | 59.8 µM (inactive) | 27.3 µM (inactive) | 34.4 µM (inactive) |  | 35.2 µM (inactive) | 26.9 µM (inactive) | 12.7 µM (inactive) | 19.5 µM (inactive) | 22.7 µM (inactive)
6 | OCCOCn1nncc1Cn1ncc2c(SCc3ccccc3)ncnc21 | 34.7 µM (inactive) | > 100 µM (inactive) | > 100 µM (inactive) | 16.5 µM (inactive) | > 100 µM (inactive) | 80.9 µM (inactive) | > 100 µM (inactive) | 35.5 µM (inactive) | > 100 µM (inactive) | 45.9 µM (inactive) | > 100 µM (inactive) | > 100 µM (inactive) | > 100 µM (inactive) | > 100 µM (inactive) | > 100 µM (inactive) | 59.4 µM (inactive) | 60.4 µM (inactive) | 80.2 µM (inactive) | > 100 µM (inactive) | 
